# Laboratory results taken from patent US20080107625A1, “Inhibitors of Hepatitis C Virus” (Bristol-Myers Squibb Company, priority 2006, published 2008).
# Target: HCV NS3/4A protease complex, BMS strain (Hepatitis C virus genotype 1a, UniProt P27958, C1454S/C1711G)
# Assay: FRET peptide assay to monitor HCV NS3/4A proteolytic activity (BMS strain)
# Assay type: biochemical
# Settings: read-out: IC50 against the NS3/4A BMS strain in the enzyme assay
# Description: HCV NS3 protease complexes, derived from the BMS strain, H77 strain or J4L6S strain, were generated, as described below. These purified recombinant proteins were generated for use in a homogeneous assay (see below) to provide an indication of how effective compounds of the present disclosure would be in inhibiting HCV NS3 proteolytic activity.
# Serum from an HCV-infected patient was obtained from Dr. T. Wright, San Francisco Hospital. […]
# In order to monitor HCV NS3/4A protease activity, an NS3/4A peptide substrate was used. […] The peptide also contains a fluorescence donor, EDANS, near one end of the peptide and an acceptor, DABCYL, near the other end. The fluorescence of the peptide is quenched by […] resonance energy transfer (RET) between the donor and the acceptor, but as the NS3 protease cleaves the peptide the products are released from RET quenching and the fluorescence of the donor becomes apparent.
# The peptide substrate was incubated with one of the three recombinant NS3/4A protease complexes, in the absence or presence of a compound of the present disclosure. The inhibitory effects of a compound was determined by monitoring the formation of fluorescent reaction product in real time using a Cytofluor Series 4000. […]
# Sequence of HCV NS3/4A protease complex, BMS strain (P27958 1027-1711 C1454S/C1711G, one chain of several): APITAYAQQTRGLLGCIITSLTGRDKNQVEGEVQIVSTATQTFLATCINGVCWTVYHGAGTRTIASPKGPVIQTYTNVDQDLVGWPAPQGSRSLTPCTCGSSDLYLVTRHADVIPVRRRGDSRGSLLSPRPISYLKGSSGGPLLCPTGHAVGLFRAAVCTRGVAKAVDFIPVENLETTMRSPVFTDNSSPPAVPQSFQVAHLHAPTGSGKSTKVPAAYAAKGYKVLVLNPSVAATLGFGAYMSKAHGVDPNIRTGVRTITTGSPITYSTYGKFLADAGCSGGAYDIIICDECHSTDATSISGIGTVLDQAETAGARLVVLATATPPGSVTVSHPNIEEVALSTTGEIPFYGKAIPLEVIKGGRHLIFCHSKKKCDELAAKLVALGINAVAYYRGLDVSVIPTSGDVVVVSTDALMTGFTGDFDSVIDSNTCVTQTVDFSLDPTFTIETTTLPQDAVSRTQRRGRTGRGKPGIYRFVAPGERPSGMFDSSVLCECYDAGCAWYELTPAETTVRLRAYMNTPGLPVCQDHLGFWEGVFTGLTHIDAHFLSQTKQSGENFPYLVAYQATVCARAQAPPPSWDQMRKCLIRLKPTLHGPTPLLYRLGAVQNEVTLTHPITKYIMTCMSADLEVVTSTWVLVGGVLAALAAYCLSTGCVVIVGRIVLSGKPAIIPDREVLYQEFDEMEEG
compound,measurement,value
CC(C)(C)OC(=O)N[C@H]1CN(C2CC2)CCC/C=C\C2C[C@@]2(C(=O)NS(=O)(=O)C2CC2)NC(=O)[C@@H]2C[C@@H](Oc3ccccn3)CN2C1=O (stereo partly shown) [Compound 1],IC50,98 nM
